One test has as its target recombinant CD73 (Homo sapiens (Human), UniProt P21589). The test can be described thus: Inhibition of the CD73 enzyme in vitro (soluble recombinant CD73, AMP, Malachite Green). The test is classed as biochemical. The following applies: recombinant CD73 0.5 nM, AMP 50 μM, 30 minutes at room temperature. The procedure: The concentration of inorganic phosphate was determined using a phosphate standard curve.

The target in test [1] is endogenous, cell-bound CD73 on SK-MEL-28 cells (Homo sapiens (Human), UniProt P21589). The test is described as follows: Inhibition of endogenous, cell-bound CD73 enzyme activity in SK-MEL-28 cells (AMP, Malachite Green). In kind it is cell-based. The following applies: 100 μM AMP, 30 minutes at room temperature. The procedure:
The day before the experiment, 5000 cells were plated per well in a 96-well plate. Cells were washed twice with 200 μL reaction buffer (20 mM HEPES, pH 7.4, 125 mM NaCl, 1 mM KCl, 2 mM MgCl2, 10 mM glucose) to remove residual inorganic phosphate. After washing, assays contained serial dilutions of test compounds and 100 μM of AMP in a total volume of 200 μL reaction buffer, with a final DMSO concentration ≤0.5%. After 30 minutes at room temperature, supernatant was removed from the cells. […] The concentration of inorganic phosphate was determined using a phosphate standard curve to determine IC50.

Sequence of endogenous, cell-bound CD73 on SK-MEL-28 cells (P21589 27-574): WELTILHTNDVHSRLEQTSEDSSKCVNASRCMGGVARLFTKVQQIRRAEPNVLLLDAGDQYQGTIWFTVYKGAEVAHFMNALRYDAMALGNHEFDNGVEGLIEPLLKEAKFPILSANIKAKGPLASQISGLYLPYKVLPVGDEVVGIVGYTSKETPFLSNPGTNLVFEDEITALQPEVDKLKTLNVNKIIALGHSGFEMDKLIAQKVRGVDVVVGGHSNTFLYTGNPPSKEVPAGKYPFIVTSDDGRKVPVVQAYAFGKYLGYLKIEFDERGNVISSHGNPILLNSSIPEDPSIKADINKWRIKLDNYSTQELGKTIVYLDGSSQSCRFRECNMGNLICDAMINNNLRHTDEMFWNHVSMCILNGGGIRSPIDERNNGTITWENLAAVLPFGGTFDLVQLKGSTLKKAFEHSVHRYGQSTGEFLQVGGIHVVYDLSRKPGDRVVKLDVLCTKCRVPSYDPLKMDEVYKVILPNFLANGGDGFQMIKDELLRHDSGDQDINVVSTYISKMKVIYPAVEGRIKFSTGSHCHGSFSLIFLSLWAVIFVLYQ
Sequence of recombinant CD73 (P21589 27-547): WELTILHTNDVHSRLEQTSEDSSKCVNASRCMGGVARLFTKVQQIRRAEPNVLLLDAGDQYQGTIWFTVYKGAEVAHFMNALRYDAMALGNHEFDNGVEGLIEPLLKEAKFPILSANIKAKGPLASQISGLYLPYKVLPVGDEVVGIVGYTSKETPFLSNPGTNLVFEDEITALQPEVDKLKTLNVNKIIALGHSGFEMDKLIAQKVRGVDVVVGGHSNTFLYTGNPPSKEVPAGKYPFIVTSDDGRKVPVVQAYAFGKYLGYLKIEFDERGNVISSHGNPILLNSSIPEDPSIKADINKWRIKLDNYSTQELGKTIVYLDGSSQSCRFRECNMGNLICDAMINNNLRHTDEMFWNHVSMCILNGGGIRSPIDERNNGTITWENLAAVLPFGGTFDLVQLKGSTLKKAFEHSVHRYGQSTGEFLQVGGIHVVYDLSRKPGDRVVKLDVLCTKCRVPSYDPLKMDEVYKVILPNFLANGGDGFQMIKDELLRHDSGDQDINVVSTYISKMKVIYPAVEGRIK

Take `CCOC(=O)C(Cc1ccc(OC(F)(F)F)cc1)(OC[C@H]1O[C@@H](n2cnc3c(N)nc(Cl)nc32)[C@@H](F)[C@@H]1O)C(=O)O` (single isomer, unassigned) [compound 37]: the IC50 at recombinant CD73 was 718 nM; in test [1] it was 598 nM.
In the case of `Nc1nc(Cl)nc2c1ncn2[C@@H]1O[C@H](COC(Cc2ccccc2)(C(=O)O)C(=O)O)[C@@H](O)[C@H]1N` [compound 55, 2-(((2R,3S,4R,5R)-4-amino-5-(6-amino-2-chloro-9H-purin-9-yl)-3-hydroxytetrahydrofuran-2-yl)methoxy)-2-benzylmalonic acid], the IC50 in test [1] was > 50000 nM.
With `O=C(O)C(Cc1ccccc1)(OC[C@H]1O[C@@H](n2cnc3c(O)nc(Cl)nc32)[C@@H](F)[C@@H]1O)C(=O)O` [compound 74, 2-benzyl-2-(((2R,3R,4S,5R)-5-(2-chloro-6-hydroxy-9H-purin-9-yl)-4-fluoro-3-hydroxytetrahydrofuran-2-yl)methoxy)malonic acid], the figures for the IC50 (at recombinant CD73; in test [1]) were 1660 nM and 2560 nM, respectively.
Turning to `CNC(=O)c1ccc(CC(OC[C@H]2O[C@@H](n3cnc4c(N)nc(Cl)nc43)[C@@H](F)[C@@H]2O)(C(=O)O)C(=O)O)cc1` [compound 98, 2-(((2R,3R,4S,5R)-5-(6-amino-2-chloro-9H-purin-9-yl)-4-fluoro-3-hydroxytetrahydrofuran-2-yl)methoxy)-2-(4-(methylcarbamoyl)benzyl) malonic acid], at recombinant CD73, the IC50 worked out at 512 nM.
On to `C[C@@]1(O)[C@H](O)[C@@H](COC(Cc2ccc(C(=O)O)cc2)(C(=O)O)C(=O)O)O[C@H]1n1cnc2c(N)nc(Cl)nc21` [compound 107], for which the IC50 on recombinant CD73 is 42500 nM.
Take `Nc1nc(Cl)nc2c1ncn2[C@@H]1O[C@H](COC(Cc2ccc(F)c(F)c2F)(C(=O)O)C(=O)O)[C@@H](O)[C@@H]1F` [compound 108]: the IC50 was determined as 104 nM on recombinant CD73 and 246 nM in test [1].
With `O=C(O)C(Cc1ccccc1)(OC[C@H]1O[C@@H](n2cnc3c(SC4CCCC4)nc(Cl)nc32)[C@@H](F)[C@@H]1O)C(=O)O` [compound 109], the IC50 on recombinant CD73 is 601 nM; in test [1] it was 1910 nM.
The corresponding values for `Nc1nc(Cl)nc2c1ncn2[C@@H]1O[C@H](COC(Cc2ccc3c(c2)OC(F)(F)O3)(C(=O)O)C(=O)O)[C@@H](O)[C@@H]1F` [compound 110] are 66 nM and 361 nM.
On to `NC(=O)c1ccc(CC(OC[C@H]2O[C@@H](n3cnc4c(N)nc(Cl)nc43)[C@@H](F)[C@@H]2O)(C(=O)O)C(=O)O)cc1` [compound 111], for which the IC50 on recombinant CD73 was found to be 141 nM; in test [1], 182 nM.
In the case of `C[C@@]1(F)[C@H](O)[C@@H](COC(Cc2ccc(C(=O)O)cc2)(C(=O)O)C(=O)O)O[C@H]1n1cnc2c(N)nc(Cl)nc21` [compound 117], the IC50 on recombinant CD73 was determined as 63900 nM.
`CCOC(=O)C(Cc1ccccc1)(OC[C@@H]1C[C@H](F)[C@H](n2cnc3c(N)nc(Cl)nc32)O1)C(=O)OCC` [compound 118]: the IC50 on recombinant CD73 is > 200000 nM.
On to `Nc1nc(Cl)nc2c1ncn2[C@@H]1O[C@H](COC(Cc2ccccc2)(C(=O)O)C(=O)O)C[C@@H]1F` [compound 119], for which, on recombinant CD73, the IC50 amounted to 28000 nM.
On to `COc1nc(N)c2ncn([C@@H]3O[C@H](COC(Cc4ccccc4)(C(=O)O)C(=O)O)C[C@@H]3F)c2n1` [compound 120], for which the half-inhibitory concentration (IC50) on recombinant CD73 is 54500 nM.
Take `Nc1nc(Cl)nc2c1ncn2[C@@H]1O[C@H](COC(Cc2ccc(Cl)c(OC(F)(F)F)c2)(C(=O)O)C(=O)O)[C@@H](O)[C@@H]1F` [compound 125]: the IC50 on recombinant CD73 stood at 242 nM; in test [1], 836 nM.
With `Nc1nc(Cl)nc2c1ncn2[C@@H]1O[C@H](COC(Cc2c(F)cc(Cl)cc2F)(C(=O)O)C(=O)O)[C@@H](O)[C@@H]1F` [compound 126], at recombinant CD73, the IC50 is 25300 nM.
For `Nc1nc(Cl)nc2c1ncn2[C@@H]1O[C@H](COC(Cc2ccccc2F)(C(=O)O)C(=O)O)[C@@H](O)[C@@H]1F` [compound 127], the IC50 at recombinant CD73 turned out to be 149 nM; in test [1], 408 nM.
As for `Nc1nc(Cl)nc2c1ncn2[C@@H]1O[C@H](COC(Cc2ccc(Cl)c(Cl)c2)(C(=O)O)C(=O)O)[C@@H](O)[C@@H]1F` [compound 128], the IC50 at recombinant CD73 is 258 nM; in test [1] it was 827 nM.
On to `Nc1ncnc2c1ncn2[C@@H]1O[C@H](COC(Cc2cccc(OC(F)(F)F)c2)(C(=O)O)C(=O)OCCN2CCOCC2)[C@@H](O)[C@@H]1F` (some centres unmarked) [compound 139], for which, on recombinant CD73, the IC50 came to 16500 nM.
As for `Nc1nc(Cl)nc2c1ncn2[C@@H]1O[C@H](COC(Cc2ccc(NC(=O)c3cccs3)cc2)(C(=O)O)C(=O)O)[C@@H](O)[C@@H]1F` [compound 140], the IC50 at recombinant CD73 is 30 nM.
Same read-out and setting: the figure for `Nc1nc(Cl)nc2c1ncn2[C@@H]1O[C@H](COC(Cc2ccc(NC(=O)c3cccs3)cc2)(C(=O)O)C(=O)O)[C@@H](O)[C@@H]1F` [compound 141] is 60 nM; for `Nc1nc(Cl)nc2c1ncn2[C@@H]1O[C@H](COC(Cc2ccc(-c3cccnc3)cc2)(C(=O)O)C(=O)O)[C@@H](O)[C@@H]1F` [compound 142] it is 67 nM; for `Nc1nc(Cl)nc2c1ncn2[C@@H]1O[C@H](COC(Cc2ccc(-c3cncnc3)cc2)(C(=O)O)C(=O)O)[C@@H](O)[C@@H]1F` [compound 143] it is 136 nM.
As for `Nc1nc(Cl)nc2c1ncn2[C@@H]1O[C@H](COC(Cc2ccc(-c3ccc(F)cc3)cc2)(C(=O)O)C(=O)O)[C@@H](O)[C@@H]1F` [compound 144], the IC50 on recombinant CD73 came out at 65 nM.
With `Nc1nc(Cl)nc2c1ncn2[C@@H]1O[C@H](COC(Cc2ccc(C(=O)O)cc2)(C(=O)O)C(=O)O)[C@H](O)[C@@H]1F` [compound 145], the IC50 on recombinant CD73 turned out to be 106 nM.
Take `Nc1nc(Cl)nc2c1ncn2[C@@H]1O[C@H](COC(Cc2ccccc2)(C(=O)O)C(=O)O)[C@@H](O)[C@@H]1Cl` [compound 146]: the IC50 on recombinant CD73 came out at 181 nM.
With `CS(=O)(=O)c1ccc(CC(OC[C@H]2O[C@@H](n3cnc4c(N)nc(Cl)nc43)[C@@H](F)[C@@H]2O)(C(=O)O)C(=O)O)cc1` [compound 153], the IC50 on recombinant CD73 is 74 nM.
As to `Nc1nc(Cl)nc2c1ncn2[C@@H]1O[C@H](COC(Cc2ccccc2)(C(=O)O)C(=O)O)[C@@H](O)[C@@H]1F` [compound 169], the IC50 at recombinant CD73 is 119 nM.
Same read-out and setting: the figure for `Nc1nc(Cl)nc2c1ncn2[C@@H]1O[C@H](COC(Cc2ccc(C(=O)O)cc2)(C(=O)O)C(=O)O)[C@@H](O)[C@@H]1F` [compound 171] is 114 nM.
`CCOC(=O)C(Cc1ccccc1)(OC[C@H]1O[C@@H](n2cnc3c(N)nc(Cl)nc32)[C@H](O)[C@@H]1O)c1nn[nH]n1` (some centres unmarked) [compound 193]: the IC50 on recombinant CD73 was > 50000 nM.

By IC50 is commonly meant the point on the concentration scale where inhibition reaches its midpoint.

For the origin of these results see US11034715B2, “Ectonucleotidase inhibitors and methods of use thereof” (Calithera Biosciences, Inc., priority 2016, dated 2021).
